“And” between values parts separate entries of the source, which are not always exact repeats. Identical values can stand only once.
Biological target: T1, Corticotropin-releasing factor receptor 1 (Homo sapiens, UniProt P34998)
T1 sequence (P34998 whole entry): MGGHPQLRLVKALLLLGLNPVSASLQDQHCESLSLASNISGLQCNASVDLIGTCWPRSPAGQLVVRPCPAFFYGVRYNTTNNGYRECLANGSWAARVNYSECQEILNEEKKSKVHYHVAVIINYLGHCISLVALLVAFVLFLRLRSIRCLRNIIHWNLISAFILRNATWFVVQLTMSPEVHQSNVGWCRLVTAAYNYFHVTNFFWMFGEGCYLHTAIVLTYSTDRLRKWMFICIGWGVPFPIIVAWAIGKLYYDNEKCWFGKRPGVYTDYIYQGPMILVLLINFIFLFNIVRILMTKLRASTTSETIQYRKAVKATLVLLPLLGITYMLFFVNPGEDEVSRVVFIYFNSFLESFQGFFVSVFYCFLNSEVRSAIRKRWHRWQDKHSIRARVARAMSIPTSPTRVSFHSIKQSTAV

Row | Molecule | Ki
1 | CCCCN(CC)c1nc(C)nc2c1c(C)cn2-c1c(C)cc(C)cc1C | 1.2 nM and 0.4 nM
2 | CCC(COC)n1nnc2c(Nc3ccc(OC)cc3C)nc(C)cc21 (stereo unspecified) | 6.8 nM and 4.9 nM
3 | CC[C@H](C)[C@H](NC(=O)[C@H](CC(=O)O)NC(=O)[C@H](CC(C)C)NC(=O)[C@H](CC(C)C)NC(=O)[C@H](CCCCN)NC(=O)[C@H](CCCN=C(N)N)NC(=O)[C@H](CC(N)=O)NC(=O)[C@H](CO)NC(=O)[C@H](Cc1cnc[nH]1)NC(=O)[C@H](C)NC(=O)[C@H](CCC(N)=O)NC(=O)[C@H](CCC(N)=O)NC(=O)[C@H](C)NC(=O)[C@H](CC(C)C)NC(=O)[C@H](CCC(N)=O)NC(=O)[C@H](CC(=O)O)NC(=O)[C@H](C)NC(=O)[C@H](CCCCN)NC(=O)[C@@H](NC(=O)[C@H](CCSC)NC(=O)[C@H](CCC(=O)O)NC(=O)[C@H](CC(C)C)NC(=O)[C@@H](NC(=O)[C@H](CCC(=O)O)NC(=O)[C@H](CCCN=C(N)N)NC(=O)[C@H](CC(C)C)NC(=O)[C@H](CC(C)C)NC(=O)[C@H](Cc1cnc[nH]1)NC(=O)[C@H](Cc1ccccc1)NC(=O)[C@@H](NC(=O)[C@H](CC(C)C)NC(=O)[C@H](CC(=O)O)NC(=O)[C@H](CC(C)C)NC(=O)[C@H](CO)NC(=O)[C@@H](NC(=O)[C@@H]1CCCN1C(=O)[C@@H]1CCCN1C(=O)[C@H](CCC(=O)O)NC(=O)[C@H](CCC(N)=O)NC(=O)[C@@H](N)CO)[C@@H](C)CC)[C@@H](C)O)C(C)C)[C@@H](C)O)C(=O)N[C@@H](C)C(N)=O [NSC_0] | 3.3 nM and 23.1 nM

Further lines, results first:

Row | Ki | Molecule
4 | > 1000 nM | H-DLTFHLLREMLEMAKAEQEAEQAALNRLLLEEA-NH2 [NSC_0]
5 | 2.8 nM | COCC(COC)Nc1nc(C)nc2c(-c3ccc(Cl)cc3Cl)c(C)nn12 [DMP696]
6 | 0.4 nM | CCC(CC)Nc1cc(C)nc2c(-c3ccc(OC)cc3C)c(C)nn12

Source: BindingDB's records for doi:10.1124/jpet.102.046128 (Bristol-Myers Squibb Pharmaceuticals Research Institute, 2003)
